# Measured values reported in publication PMC10970558 (International Journal of Molecular Sciences, 2024).
# “And” between values parts separate entries of the source, which are not always exact repeats. Identical values can stand only once. Like-named read-outs stand apart in the source and are kept apart here.
# How the values were obtained:
# C. elegans [1] = test: In vivo toxicity, C. elegans body length; set-up: species or system Caenorhabditis elegans
# Procedure: (§1) Nematodes wild-type culture (strain N2) was maintained at 20 °C on NGM agar plates with bacteria Escherichia coli OP50 as food source. C. elegans culture was synchronized by treatment with hypochlorite. Obtained eggs were left in M9 buffer at room temperature to hatch until the following day. The next day L1 worms were placed on NGM plates with E. coli OP50 and left at 20 °C until reaching L4 stage (approximately 44 h). L4 worms were transferred to 15 mL falcons by washing NGM plates twice with 5 mL water and centrifuged at 1500 rpm for 3–4 min. Then supernatant was aspirated. Pellet was re-suspended with 5 mL of complete S medium followed by centrifugation. Subsequently the density of nematodes suspension was assessed according to Scanlan et al.. Worms were suspended in complete S medium with E. coli OP50 (1:1000), 0.08% cholesterol (5 mg/mL in Et-OH), 1% penicillin-streptomycin, 1% nystatin, and 100 mM FUdR (at final concentration 200 µM) to obtain 20 nematodes in 50 μL. FUdR was added to sterilize nematodes. After that worms were transferred to 96-well plate. The working solutions of tested drugs were prepared in the complete S medium with 0.1% DMSO and placed into a 96-well plate with previously seeded worms. Then, worms were incubated at 21 °C for 7 days. Live (moving and curling) and dead nematodes were counted every day with an inverted microscope with contrast phase (Delta Optical IB-100). Images of treated C. elegans were also collected. The assay was performed in triplicates in three independent experiments.
# (§2) To analyze differences in nematode viability incubated with the respective concentrations of the compounds, the Kaplan–Meier estimator was used. Statistically significant differences between the control and treated groups were determined with Gehan’s Wilcoxon test. Statistically significant differences in body size between the control and treated groups were determined using a Kruskal–Wallis. p < 0.05 was considered statistically significant. All analyses and calculations were performed using Statistica 13.3 software (StatSoft, Cracow, Poland).
# glioma stem cells GSC = system: glioma stem cells GSC; set-up: method as in PMID 18509487; details: mouse model of malignant glioma; cited from earlier work
# [2] = system: HaCaT immortalized keratinocytes; test: Caspase 3/7 activity (apoptosis); type: cell-based, human; details: 24 h
# Procedure: (§3) As an apoptosis marker, Caspase 3/7 activity was measured with Apo-ONE® Homogenous Caspase-3/7 Assay (Promega). The fluorescence as determinant of caspase-3/7 activity was read at 485/535 nm using Tecan Infinite M200 PRO Multimode Microplate Reader (TECAN Group Ltd., Männedorf, Switzerland) and results were adjusted relatively to the number of cells per well (the number of cells was determined by fluorescence measurement after DAPI staining).
# BJ normal fibroblasts [3] = test: Caspase 3/7 activity (apoptosis); type: cell-based, human; details: 24 h
# Procedure: as §3
# [4] = system: HaCaT immortalized keratinocytes; test: Migration (scratch) assay; type: cell-based, human
# Procedure: (§4) Cells were seeded in 24-well plates at 1.5 × 10^5 cells/well in 600 µL culture medium and incubated at 37 °C for 24 h to obtain full confluence. Afterwards, cells were scraped with a sterile 200 µL pipette tips and debris was removed. […] Medium with lowered 2% FBS was used to inhibit cell division. […] Assay was performed as described. The results were expressed as % of scraped area closure estimated as ratio of area measured before and after treatment with drugs.
# BJ normal fibroblasts [5] = test: Migration (scratch) assay; type: cell-based, human; details: 12 h
# Procedure: as §4
# C. elegans [6] = test: In vivo toxicity, C. elegans survival; details: for concentration at which toxic: 7 days incubation, tested 25–400 µM; for effect on the entire nematode organism: up to 100 µM, up to 4th day of incubation
# Procedure: as §1, §2
# [7] = In vivo toxicity, C. elegans survival; details: N2, Caenorhabditis elegans, in vivo, other: exposure in complete S medium in 96-well plate, 7 days incubation, read-out: viability (living individuals)
# Procedure: as §1, §2
# [8] = system: HaCaT immortalized keratinocytes; test: Intracellular ATP level (CellTiter-Glo); type: cell-based, human; details: 24 h
# Procedure: (§5) Intracellular level of ATP was estimated with commercially available bioluminescent CellTiter-Glo® Assay kit from Promega, which was prepared according to manufacturer’s protocol and added to cells (100 μL/well). After 10 min incubation at RT the luminescence was measured using the Infinite M200 PRO Multimode Microplate Reader (TECAN Group Ltd., Männedorf, Switzerland) against blank (wells with the CellTiter-Glo® reagent only). The luminescence signal was proportional to ATP level. At the same time a parallel assay was performed, and cells were labeled with […] DAPI (as described above in proliferation assay). Using calibration curve, the DAPI fluorescence signal was used to estimate the number of cells in each well and to calculate luminescence signal intensity from ATP per one cell. The results were expressed as % of the control (non-treated cells).
# BJ normal fibroblasts [9] = test: Intracellular ATP level (CellTiter-Glo); type: cell-based, human; details: 24 h
# Procedure: as §5
# [10] = Neutral red (NR) cytotoxicity assay; type: cell-based, human; details: human, HaCaT immortalized keratinocytes, 50 µM, 24 h, NR assay
# Procedure: (§6) After 24 h exposure to drugs, assay was performed as described.
# [11] = system: HaCaT immortalized keratinocytes; test: Neutral red (NR) cytotoxicity assay; type: cell-based, human; details: for IC50: 24 h treatment, NR assay, AAT Bioquest IC50 calculator
# Procedure: as §6
# BJ normal fibroblasts [12] = test: Neutral red (NR) cytotoxicity assay; type: cell-based, human; details: for IC50: 24 h treatment, AAT Bioquest IC50 calculator
# Procedure: as §6
# A172 glioma cells = system: A172 glioma cells; set-up: method as in PMID 37574500; details: A172, 24 h incubation; cited from earlier work
# U87 glioma = system: U87 glioma; set-up: method as in PMID 33941107; details: cited from earlier work
# BJ normal fibroblasts [13] = test: Proliferation assay (DAPI, 72 h); type: cell-based, human
# Procedure: Cells were seeded into 96-well, clear microplates at density 4 × 10^3 cells/well and incubated 24 h at 37 °C to attach. […] DMSO concentration was adjusted to 0.1% in all samples. The plates were placed for 72 h in incubator. Then, cells were washed with PBS and fixed in 3.7% formaldehyde solution in PBS for 15 min at RT, again washed with PBS and nuclei were staining with 600 nM DAPI solution in PBS (100 µL/well, 1 h). The fluorescent signal, proportional to the number of cells, was measured in Tecan Infinite M200 PRO Mulitmode Microplate Reader (TECAN Group Ltd., Männedorf, Switzerland) at 360 nm/460 nm. The results were expressed as % of the 0.1% DMSO treated control.
# PPARγ in BJ cells = test: PPARγ level, Western blot; type: cell-based, human; details: non-toxic concentration (12.5 µM), 24 h
# PPARγ = target: PPARγ; set-up: method as in PMID 11684010; details: cited from earlier work
smiles,measurement,setting,value
"Cc1ccc(-c2cc(C(F)(F)F)nn2-c2ccc(S(N)(=O)=O)cc2)cc1 [CXB, celecoxib]",reduction of body length,"C. elegans [1]; 200 µM, 7 days",25%
same,concentration at which body length was significantly shortened,C. elegans [1]; 7-day treatment,50 to 400 µM
same,body length versus control group,"C. elegans [1]; 50 and 400 µM, 7 days",more than twice as short
same,IC50,glioma stem cells GSC,60 µM
same,concentration from which caspase 3/7 activity increased / apoptosis induced,[2],≥ 50 µM
same,concentration from which caspase 3/7 activity increased / apoptosis induced,BJ normal fibroblasts [3],≥ 50 µM
same,concentration from which migration was reduced,[4]; 24 h,≥ 50 µM
same,concentration from which migration was reduced,BJ normal fibroblasts [5],≥ 50 µM
same,concentration at which lifespan was significantly shortened,C. elegans [6]; 7-day treatment,25 to 400 µM
same,concentration at which toxic,C. elegans [6],25 µM
same,effect on the entire nematode organism,C. elegans [6],no significant effect
same,"viability at 7 days, 200 µM",[7]; 200 µM,60%
same,"viability at 7 days, 400 µM",[7]; 400 µM,73%
same,concentration at which intracellular ATP level increased,[8],25 µM and 50 µM
same,concentration at which intracellular ATP level increased,BJ normal fibroblasts [9],25 µM
same,"viability at 24 h, 50 µM",[10],~65%
same,IC50,"[11]; Homo sapiens, read-out: IC50",59.5 µM
same,IC50,"BJ normal fibroblasts [12]; Homo sapiens, Fibroblast",77.6 µM
same,concentration from which cells were significantly destroyed via apoptosis,A172 glioma cells,≥ 25 µM
CC1(COc2ccc(CC3SC(=O)NC3=O)cc2)CCCCC1 (centres unmarked) [Ciglitazone],"concentration inhibiting growth of U87 glioma tumors, colony formation and migration",U87 glioma,20 µM
"CC(C)C[C@H](NC(=O)OCC1c2ccccc2-c2ccccc21)C(=O)O [FL, Fmoc-L-Leucine]",change in nematode body length,C. elegans [1]; 7 days,did not significantly affect
same,change of caspase 3/7 activity level,[2],reduced
same,concentration from which caspase 3/7 activity increased / apoptosis induced,BJ normal fibroblasts [3],≥ 50 µM
same,concentration at which cell division was inhibited,BJ normal fibroblasts [13],100 µM
same,effect on migration,[4]; entire range of concentrations used (25–100 µM),did not affect
same,concentration from which migration was reduced,BJ normal fibroblasts [5],≥ 50 µM
same,increase of PPARγ level,PPARγ in BJ cells,55% and 50%
same,concentration at which toxic,C. elegans [6],400 µM
same,effect on the entire nematode organism,C. elegans [6],no significant effect
same,concentration at which intracellular ATP level increased,[8],100 µM
same,concentration at which intracellular ATP level decreased,BJ normal fibroblasts [9],100 µM
same,Ki,PPARγ,15 µM
same,IC50,[11],≫
same,sensitivity of cells,[11]; up to the highest (100 µM) concentration,not sensitive
same,viability,"BJ normal fibroblasts [12]; 100 µM, 24 h",about 70%
same,IC50,BJ normal fibroblasts [12],400 µM
COC(=O)Nc1nc2ccc(C(=O)c3ccccc3)cc2[nH]1 [mebendazole],IC50,"C. elegans [6]; Caenorhabditis elegans, data from our studies",4 µM
Cc1c(C)c2c(c(C)c1O)CCC(C)(COc1ccc(CC3SC(=O)NC3=O)cc1)O2 (centres unmarked) [troglitazone],"concentration inhibiting growth of U87 glioma tumors, colony formation and migration",U87 glioma,20 µM
